Patent EP2388012A1 (Roehampton University, priority 2010, dated 2011)
Where no end group is shown, it is not given here. The star is where a group is joined. Biotin = O=C1N[C@H]2[C@H](CS[C@H]2CCCCC(=O)*)N1

What was measured:
[1] = tested on: biotinylated IAPP 1-37 to the Kissorphin-6 peptide; format: binding, human
[2] = tested on: biotinylated PrP 106-126 to the Kissorphin-6 peptide
[3] = tested on: biotinylated Aß 1-42 to the Kissorphin-6 peptide; format: binding, human
Amyloid-Dan fibrils = format: binding, human
Aß 1-42 fibrils = format: binding, human
Amyloid-Bri fibrils = format: binding, human
IAPP 20-29 fibrils = format: binding, human
IAPP 1-37 fibrils = format: binding, human
Aß 25-35 fibrils = format: binding, human
[4] = tested on: mouse LHRH secreting cell line (GT1); format: cell-based
[5] = tested on: human neuroblastoma SH-SY5Y cell line; format: cell-based
[6] = target: GPR-54 G-protein coupled receptor (mouse) (UniProt Q91V45); assay: cell-based or functional assay
Aß 1-42 = format: binding, human; details: 4°C 16 hours
IAPP 1-37 = format: binding, human; details: 4°C 16 hours
[7] = target: T1, GPR-54 G-protein coupled receptor (mouse), Q91V45; assay: cell-based or functional assay
T1 chain: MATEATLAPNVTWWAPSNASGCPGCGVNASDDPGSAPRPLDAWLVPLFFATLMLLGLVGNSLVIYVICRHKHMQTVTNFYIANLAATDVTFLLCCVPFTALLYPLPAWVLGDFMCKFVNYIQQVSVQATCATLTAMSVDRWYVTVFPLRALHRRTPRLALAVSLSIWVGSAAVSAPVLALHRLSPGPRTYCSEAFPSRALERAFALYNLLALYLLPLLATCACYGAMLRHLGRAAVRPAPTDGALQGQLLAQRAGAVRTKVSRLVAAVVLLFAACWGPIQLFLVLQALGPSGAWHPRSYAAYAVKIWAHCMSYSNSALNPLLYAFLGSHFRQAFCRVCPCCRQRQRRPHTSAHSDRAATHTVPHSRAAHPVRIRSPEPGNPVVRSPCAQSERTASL

“Aß 1-28: Aß fragment, unlabelled competitor” was tested, and the “effect on binding of biotinylated IAPP 1-37 to the Kissorphin-6 peptide” value [1] was “no effect”, the “effect on binding of biotinylated PrP 106-126 to the Kissorphin-6 peptide” value [2] was “no effect” and the “effect on binding of biotinylated Aß 1-42 to the Kissorphin-6 peptide” value [3] was “no effect”.

For “Aß 25-35: Aß fragment, functional neurotoxic domain (GSNKGAIIGLM)”, the “effect on binding of biotinylated IAPP 1-37 to the Kissorphin-6 peptide” value [1] was “strongly inhibited”, the “effect on binding of biotinylated PrP 106-126 to the Kissorphin-6 peptide” value [2] was “strongly inhibited” and the “effect on binding of biotinylated Aß 1-42 to the Kissorphin-6 peptide” value [3] was “strongly inhibited”.

For “Aß 29-40: Aß fragment, unlabelled competitor (GAIIGLMVGGVV; Amyloid-beta protein 40; UniProt P05067 700-711, looked up, fragment)”, the “effect on binding of biotinylated IAPP 1-37 to the Kissorphin-6 peptide” value [1] was “strongly inhibited”, the “effect on binding of biotinylated PrP 106-126 to the Kissorphin-6 peptide” value [2] was “strongly inhibited” and the “effect on binding of biotinylated Aß 1-42 to the Kissorphin-6 peptide” value [3] was “strongly inhibited”.

For “Aß 31-35: Aß fragment, the shortest cytotoxic form of Aß (IIGLM; Amyloid-beta protein 40; UniProt P05067 702-706, looked up, fragment)”, the “effect on binding of biotinylated IAPP 1-37 to the Kissorphin-6 peptide” value [1] was “no effect”, the “effect on binding of biotinylated PrP 106-126 to the Kissorphin-6 peptide” value [2] was “no effect” and the “effect on binding of biotinylated Aß 1-42 to the Kissorphin-6 peptide” value [3] was “no effect”.

For “Biotinylated Kisspeptin-10: N-terminally Biotinylated Kisspeptin-10, purchased from Bachem or Alpha Diagnostics”, the “binding to plates coated with PrP 118-135 fibrils” value (PrP 118-135 fibrils) was “bound”, the “binding to Amyloid-Dan fibrils” value (Amyloid-Dan fibrils) was “No binding” and the “binding to plates coated with Aß 1-42 fibrils” value (Aß 1-42 fibrils) was “bound”. For the same molecule, the “binding to Amyloid-Bri fibrils” value (Amyloid-Bri fibrils) was “No binding”, the “binding to plates coated with IAPP 20-29 fibrils” value (IAPP 20-29 fibrils) was “bound” and the “binding to plates coated with PrP 106-126 fibrils” value (PrP 106-126 fibrils) was “bound”. For the same molecule, the “binding to plates coated with IAPP 1-37 fibrils” value (IAPP 1-37 fibrils) was “bound” and the “binding to plates coated with Aß 25-35 fibrils” value (Aß 25-35 fibrils) was “bound”.

With “Biotinylated Kisspeptin-54: N-terminally Biotinylated Kisspeptin-54, purchased from Bachem or Alpha Diagnostics (Biotin-GTSLSPPPESSGSPQQPGLSAPHSRQIPAPQGAVLVQREKDLPNYNWNSFGLRF; ends and bridges not checked; UniProt Q15726 68-121, looked up)” the “binding to plates coated with PrP 118-135 fibrils” value (PrP 118-135 fibrils) was “bound”, the “binding to Amyloid-Dan fibrils” value (Amyloid-Dan fibrils) was “No binding” and the “binding to plates coated with Aß 1-42 fibrils” value (Aß 1-42 fibrils) was “bound”. The “binding to Amyloid-Bri fibrils” value (Amyloid-Bri fibrils) was “No binding”, the “binding to plates coated with IAPP 20-29 fibrils” value (IAPP 20-29 fibrils) was “bound” and the “binding to plates coated with PrP 106-126 fibrils” value (PrP 106-126 fibrils) was “bound”. For the same molecule, the “binding to plates coated with IAPP 1-37 fibrils” value (IAPP 1-37 fibrils) was “bound” and the “binding to plates coated with Aß 25-35 fibrils” value (Aß 25-35 fibrils) was “bound”.

With “Kissorphin-6 (3-6): shorter sequence, SEQ ID No. 11, residues 3-6 of Kissorphin-6 (WNSF)” the “effect on Kisspeptin-10 stimulated release of immunoreactive LHRH” value [4] was “no significant effect”, the “effect on Kisspeptin-13 stimulated release of immunoreactive LHRH” value [4] was “no significant effect” and the “effect on toxicity of Aß 1-42” value [5] was “significantly inhibited”. The “effect on toxicity of Aß 25-35” value [5] was “significantly inhibited”, the “effect on toxicity of IAPP 1-37” value [5] was “no effect” and the “effect on toxicity of IAPP 20-29” value [5] was “no effect”. The “effect on toxicity of PrP 106-126” value [5] was “no effect”, the “effect on toxicity of PrP 118-135” value [5] was “no effect” and the “effect on toxicity of the Amyloid-Bri peptide” value [5] was “unaffected”. For the same molecule, the “effect on toxicity of the Amyloid-Dan peptide” value [5] was “unaffected”.

Molecule Kisspeptin-10 (peptide) has an LHRH release from mouse GT1 cells [6] of 4 fold.

For “Kisspeptin-54 (27-54): fragment 27-54 of Kisspeptin-54 (IPAPQGAVLVQREKDLPNYNWNSFGLRF)”, the “binding of biotinylated PrP 106-126 to peptide coated plates” value (PrP 106-126) was “significant binding”, the “binding of biotinylated Aß 1-42 to peptide coated plates” value (Aß 1-42) was “significant binding” and the “effect on toxicity of Aß 1-42” value [5] was “significantly inhibited”. The “effect on toxicity of Aß 25-35” value [5] was “significantly inhibited”, the “effect on toxicity of IAPP 1-37” value [5] was “significantly inhibited” and the “effect on toxicity of IAPP 20-29” value [5] was “significantly inhibited”. For the same molecule, the “effect on toxicity of PrP 106-126” value [5] was “significantly inhibited”, the “effect on toxicity of PrP 118-135” value [5] was “significantly inhibited” and the “effect on toxicity of the Amyloid-Bri peptide” value [5] was “unaffected”. For the same molecule, the “effect on toxicity of the Amyloid-Dan peptide” value [5] was “unaffected” and the “binding of biotinylated IAPP 1-37 to peptide coated plates” value (IAPP 1-37) was “significant binding”.

In the case of “Kisspeptin-54: the 54 amino acid form of Kisspeptin, peptide derived from the Kiss1 gene, ligand for GPR-54 (SEQ ID No. 1)”, the “binding of biotinylated PrP 106-126 to peptide coated plates” value (PrP 106-126) is reported as “significant binding”, the “binding of biotinylated Aß 1-42 to peptide coated plates” value (Aß 1-42) is reported as “significant binding” and the “effect on toxicity of Aß 1-42” value [5] is reported as “significantly inhibited”. The “effect on toxicity of Aß 25-35” value [5] was “significantly inhibited”, the “effect on toxicity of IAPP 1-37” value [5] was “significantly inhibited” and the “effect on toxicity of IAPP 20-29” value [5] was “significantly inhibited”. The “effect on toxicity of PrP 106-126” value [5] was “significantly inhibited”, the “effect on toxicity of PrP 118-135” value [5] was “significantly inhibited” and the “effect on toxicity of the Amyloid-Bri peptide” value [5] was “unaffected”. For the same molecule, the “effect on toxicity of the Amyloid-Dan peptide” value [5] was “unaffected” and the “binding of biotinylated IAPP 1-37 to peptide coated plates” value (IAPP 1-37) was “significant binding”.

KCNTATCATQRLANFLVHSSNNFGAILSSTNVGSNTY (modifications not checked) [IAPP 1-37] was tested, and the Kd (Kissorphin-6 (human)) was 11.6 nM.

LPNYNWNSFGLRF (modifications not checked) [Kisspeptin-13, Q15726 109-121] was tested, and the LHRH release from mouse GT1 cells [7] was 4 fold.

Work on KTNMKHMAGAAAAGAVVGGLG (modifications not checked) [PrP 106-126] yielded a Kd (Kissorphin-6 (human)) of 34.2 nM.
